From US9868737B2, “Pyridino[1,2-A]pyrimidone analogue used as MTOR/P13K inhibitor” (CISEN PHARMACEUTICAL CO., LTD., priority 2014, dated 2018)
Where two headings read alike, the source gives them in different places.

Experiments:
mTOR kinase = molecular target: T1, mTOR kinase (Homo sapiens, UniProt P42345); experiment: mTOR kinase assay; assay type: biochemical; conditions: in vitro enzyme activity assay; ATP 100 μM; read-out: mTOR enzyme activity_IC50
T1 construct: made in house
Protocol: 2. Experimental Procedures and Methods of the mTOR Kinase Assay
The objective was to evaluate the inhibitory effect of the subject samples on the mTOR kinase activity at molecular level.
(§1) PerkinElmer Envision 2104 Multilabel Reader.
The mTOR Kinase Assay (384 wells) was purchased from PerkinElmer company; the mTOR kinase was made in our lab.
Each solution was prepared according to the instructions provided in the mTOR Kinase Assay. The kinase reaction was carried out in white 384-well plates (Proxiplate-384 plus). 2.5 μl of DMSO (the concentration was consistent with the highest concentration of DMSO for the test compounds) was added to each of the two control wells with and without enzyme, and then 2.5 μl of a series of different concentrations of the test compounds was added to each test well. ULight-4E-BP1 (Thr37/46) PeptideATP mix (the final concentration of ATP was 100 μM) and 5 μl of mTOR kinase were added to the control well containing enzyme as well as the test wells, and fully mixed. The plate was sealed with Parafilm and incubated for 2 h. Then 5 μl of stop solution was added and incubated for 5 minutes. Afterwards, 5 μl of Detection Mix (Eu-anti-phospho-4E-BP1 (Thr37/46) Antibody, the final concentration was 2 nM) was added and incubated for 1 h, and then the mixture was detected.
(§2) The IC50 value was calculated through the GraphPad software after plotting the relative inhibitory rate versus concentration.

PI3K (p110α) kinase = molecular target: T2, PI3K (p110α) kinase (Homo sapiens, UniProt P42336); experiment: PI3K (p110α) kinase assay (PI3K HTRF Assay); assay type: biochemical; conditions: in vitro enzyme activity assay, 10 μM PIP2, read-out: PI3K (p110α) enzyme activity_IC50
T2 construct: made in house
T2 sequence (P42336 whole entry): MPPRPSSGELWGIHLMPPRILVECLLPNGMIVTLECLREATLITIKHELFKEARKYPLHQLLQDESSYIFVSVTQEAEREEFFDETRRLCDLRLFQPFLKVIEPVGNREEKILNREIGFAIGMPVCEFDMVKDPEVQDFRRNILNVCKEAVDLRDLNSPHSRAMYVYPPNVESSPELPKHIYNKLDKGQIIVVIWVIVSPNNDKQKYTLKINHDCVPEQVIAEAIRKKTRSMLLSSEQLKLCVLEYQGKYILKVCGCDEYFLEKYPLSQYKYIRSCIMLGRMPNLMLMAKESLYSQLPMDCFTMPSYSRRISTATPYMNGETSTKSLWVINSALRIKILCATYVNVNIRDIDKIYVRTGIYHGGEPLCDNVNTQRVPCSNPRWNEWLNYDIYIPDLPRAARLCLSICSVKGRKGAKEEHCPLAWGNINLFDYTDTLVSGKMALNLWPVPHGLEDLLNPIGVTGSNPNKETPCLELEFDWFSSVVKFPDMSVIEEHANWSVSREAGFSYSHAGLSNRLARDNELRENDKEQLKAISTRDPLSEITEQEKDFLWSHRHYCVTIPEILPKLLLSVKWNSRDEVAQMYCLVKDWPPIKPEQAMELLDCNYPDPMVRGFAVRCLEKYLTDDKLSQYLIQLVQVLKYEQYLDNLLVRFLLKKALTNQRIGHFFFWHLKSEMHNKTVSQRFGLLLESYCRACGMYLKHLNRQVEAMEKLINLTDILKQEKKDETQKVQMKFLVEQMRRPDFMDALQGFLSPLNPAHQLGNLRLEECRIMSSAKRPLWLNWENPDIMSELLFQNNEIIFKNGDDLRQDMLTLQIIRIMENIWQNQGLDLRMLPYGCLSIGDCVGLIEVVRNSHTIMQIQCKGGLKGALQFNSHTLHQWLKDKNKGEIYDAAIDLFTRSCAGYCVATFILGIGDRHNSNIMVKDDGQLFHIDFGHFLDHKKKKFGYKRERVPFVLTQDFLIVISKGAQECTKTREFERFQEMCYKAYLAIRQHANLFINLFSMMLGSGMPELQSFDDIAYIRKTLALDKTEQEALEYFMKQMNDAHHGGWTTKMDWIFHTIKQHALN
From the text: Conclusion: The compounds of the present invention have significant inhibitory effect on mTOR/PI3K. Example In Vitro Enzyme Activity Assay 1. The experimental procedures and methods of PI3K (p110α) kinase assay: 1) Experimental Objective
The objective was to evaluate the inhibitory effect of the subject samples on PI3K (p110α) kinase activity at molecular level.
as §1
PI 3-Kinase HTRF Assay (384 wells) was purchased from Upstate (Millipore) company: PI3K (p110α) kinase was made in our lab.
c) Experimental procedures
Each solution was prepared according to the instructions provided in the Kinase PI 3-Kinase HTRF Assay. The kinase reaction was carried out in white 384-well plates (Proxiplate-384 plus), 0.5 μl of DMSO (the concentration was consistent with the highest concentration of DMSO for the test compounds) was added to each of the two control wells with and without enzyme, and then 0.5 μl of a series of different concentrations of the test compounds was added to each well to be tested. The kinase reaction liquid (10 μM substrate PIP2, 0.5 ng PI3K (p110α)) was added to the control well containing enzyme and the test wells, while only working reaction liquid (10 μM substrate PIP2) was added to the control well without enzyme, and finally, 5 μM ATP working reaction liquid was added to activate the reaction. After the reaction was carried out at room temperature for 30 min, the stop solution was added to each well to terminate the kinase reaction. After the mixture was fully mixed, the detection liquid was added to each well and fully mixed. The plate was sealed with Parafilm and placed in the dark. After incubated overnight, the mixture was detected.
as §2

MCF-7 cells = experiment: In vitro test of cell activity (MCF-7 cells, insulin stimulation, ELISA-One fluorescence); assay type: cell-based; conditions: Homo sapiens, MCF7, MCF-7 cells; for inhibition at 0.5 µM: conc. 0.5 μM; for inhibition at 1 µM: conc. 1 μM; for inhibition at 0.25 µM: conc. 0.25 μM
In short: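 Fluorescence ELISA-One read-out on cell lysates, antibody-captured 1 h at room temperature. Before lysis, MCF-7 cells (2.5×10^4/well) were pretreated 2 h with compound in serum-free medium, single dose for screening or a dilution series for IC50, then stimulated 30 min with insulin ([…] final).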

| SMILES | IC50 (mTOR kinase) [nM] | IC50 (PI3K (p110α) kinase) [nM] | inhibition at 0.5 µM (MCF-7 cells; read-out: % inhibition AKT) [%] | inhibition at 0.5 µM (MCF-7 cells; read-out: % inhibition p70s6k) [%] | IC50 (MCF-7 cells; read-out: IC50 p-AKT) [nM] | IC50 (MCF-7 cells; read-out: IC50 p-p70S6K) [nM] | inhibition at 1 µM (MCF-7 cells; read-out: % inhibition AKT) [%] | inhibition at 1 µM (MCF-7 cells; read-out: % inhibition p70s6k) [%] | inhibition at 0.25 µM (MCF-7 cells; read-out: % inhibition AKT) [%] | inhibition at 0.25 µM (MCF-7 cells; read-out: % inhibition p70s6k) [%] |
| --- | --- | --- | --- | --- | --- | --- | --- | --- | --- | --- |
| COc1ncc(-c2ccc3ncc(OC)c(=O)n3c2)cc1NS(=O)(=O)c1ccc(F)cc1Cl [compound 104] | 10 to 50 | 1 to 10 | 95.2 | 91.7 | ≤ 50 | ≤ 50 | – | – | – | – |
| COc1ncc(-c2ccc3nccc(=O)n3c2)cc1NS(=O)(=O)c1ccc(F)cc1F [compound 1, 2,4-difluoro-N-(2-methoxy-5-(4-oxo-4H-pyrido[1,2-a]pyrimidin-7-yl)pyridin-3-yl)benzsulfamide] | 10 to 50 | 1 to 10 | – | – | ≤ 50 | 50 to 100 | 97.5 | 42.4 | – | – |
| COc1ncc(-c2ccc3ncc(C)c(=O)n3c2)cc1NS(=O)(=O)c1ccc(F)cc1F [compound 81, 2,4-difluoro-N-(2-methoxy-5-(3-methyl-4-oxo-4H-pyrido[1,2-a]pyrimidin-7-yl)pyridin-3-yl)benzsulfamide] | 1 to 10 | 1 to 10 | 90.1 | 85.5 | ≤ 50 | 100 to 250 | – | – | – | – |
| COc1ncc(-c2ccc3ncc(Cl)c(=O)n3c2)cc1NS(=O)(=O)c1sc(C)nc1C [compound 153] | 1 to 10 | ≤ 1 | – | – | ≤ 50 | ≤ 50 | – | – | 91.6 | 83.5 |
| COc1ncc(-c2ccc3ncc(Cl)c(=O)n3c2)cc1NS(=O)(=O)c1sccc1Cl [compound 150] | 1 to 10 | ≤ 1 | – | – | ≤ 50 | ≤ 50 | – | – | 93.5 | 82.3 |
| COc1ncc(-c2ccc3nccc(=O)n3c2)cc1NS(=O)(=O)c1ccc(F)cc1C [compound 26] | 10 to 50 | 1 to 10 | – | – | ≤ 50 | 50 to 100 | 95.6 | 93.7 | – | – |
| COc1ncc(-c2ccc3nccc(=O)n3c2)cc1NS(=O)(=O)c1ccc(C)cc1F [compound 28] | 10 to 50 | 1 to 10 | – | – | ≤ 50 | 50 to 100 | 96.2 | 93.9 | – | – |
| COc1ncc(-c2ccc3nccc(=O)n3c2)cc1NS(=O)(=O)c1ccc(F)cc1Cl [compound 25] | 10 to 50 | 1 to 10 | – | – | ≤ 50 | 50 to 100 | 95.1 | 94.1 | – | – |
| COCCOc1cnc2ccc(-c3cnc(OC)c(NS(=O)(=O)c4c(F)cccc4F)c3)cn2c1=O [compound 265] | – | ≤ 1 | – | – | 100 to 250 | – | – | – | – | – |
| COc1ncc(-c2ccc3nccc(=O)n3c2)cc1NS(=O)(=O)c1ccc(Cl)s1 [compound 36] | 1 to 10 | 1 to 10 | 96.4 | 94.7 | ≤ 50 | ≤ 50 | – | – | – | – |
| COCCOc1cnc2ccc(-c3cnc(OC)c(NS(=O)(=O)c4ccc(Cl)cc4Cl)c3)cn2c1=O [compound 263] | – | ≤ 1 | – | – | 50 to 100 | – | – | – | – | – |
| COc1ncc(-c2ccc3ncc(Cl)c(=O)n3c2)cc1NS(=O)(=O)c1ccc(F)cc1F [compound 132, N-(5-(3-chloro-4-oxo-4H-pyrido[1,2-a]pyrimidin-7-yl)-2-methoxypyridin-3-yl)-2,4-difluorobenzsulfamide] | 1 to 10 | 1 to 10 | 93 | 88.8 | ≤ 50 | 100 to 250 | – | – | – | – |
| COc1ncc(-c2ccc3nccc(=O)n3c2)cc1NS(=O)(=O)c1ccccc1Cl [compound 30] | 10 to 50 | ≤ 1 | – | – | ≤ 50 | 50 to 100 | 95 | 93.4 | – | – |
| COc1ncc(-c2ccc3ncc(C)c(=O)n3c2)cc1NS(=O)(=O)c1ccc(F)cc1Cl [compound 83] | 1 to 10 | ≤ 1 | 95 | 87.9 | ≤ 50 | 50 to 100 | – | – | – | – |
| COCCOc1cnc2ccc(-c3cnc(OC)c(NS(=O)(=O)c4cc(F)ccc4C)c3)cn2c1=O [compound 260] | – | ≤ 1 | – | – | 100 to 250 | – | – | – | – | – |
| CCOc1cnc2ccc(-c3cnc(OC)c(NS(=O)(=O)c4ccc(Cl)s4)c3)cn2c1=O [compound 174] | 50 to 100 | ≤ 1 | – | – | ≤ 50 | ≤ 50 | – | – | 92.5 | 78.4 |
| COc1ncc(-c2ccc3ncc(F)c(=O)n3c2)cc1NS(=O)(=O)c1ccc(F)cc1F [compound 61, 2,4-difluoro-N-(5-(3-fluoro-4-oxo-4H-pyrido[1,2-a]pyrimidin-7-yl)-2-methoxypyridin-3-yl)benzsulfamide] | ≤ 1 | 10 to 50 | 78.9 | 89.7 | ≤ 50 | ≤ 50 | – | – | – | – |
| COc1ncc(-c2ccc3ncc(Cl)c(=O)n3c2)cc1NS(=O)(=O)c1ccc(F)cc1Cl [compound 135] | 1 to 10 | ≤ 1 | 95.2 | 87.6 | ≤ 50 | 50 to 100 | – | – | – | – |
| COCCOc1cnc2ccc(-c3cnc(OC)c(NS(=O)(=O)c4c(C)cc(C)cc4C)c3)cn2c1=O [compound 268] | – | 1 to 10 | – | – | 100 to 250 | – | – | – | – | – |
| COCCOc1cnc2ccc(-c3cnc(OC)c(NS(=O)(=O)c4ccc(F)cc4C)c3)cn2c1=O [compound 252] | – | 1 to 10 | – | – | > 250 | – | – | – | – | – |
| COc1ncc(-c2ccc3ncc(Cl)c(=O)n3c2)cc1NS(=O)(=O)c1c(Cl)cccc1Cl [compound 149] | 1 to 10 | 1 to 10 | – | – | ≤ 50 | ≤ 50 | – | – | 92 | 80.7 |
| COCCOc1cnc2ccc(-c3cnc(OC)c(NS(=O)(=O)c4c(Cl)cccc4Cl)c3)cn2c1=O [compound 245] | – | ≤ 1 | – | – | ≤ 50 | – | – | – | – | – |
